Numbers after ± are expanded uncertainties.
Test: xn = mol fraction of the nth substance listed
Details: 101 kPa, Liquid

CN1CCOCC1 [N-methylmorpholine] + O
viscosity (313.15 K, x1 = 0.9812): 0.952 ± 0.095 mPa·s
mass density (323.15 K, x1 = 0.0452): 978.13 ± 1.3 kg/m3
viscosity (323.15 K, x1 = 0.0452): 1.119 ± 0.11 mPa·s
mass density (323.15 K, x1 = 0.0942): 972.37 ± 1.4 kg/m3
viscosity (323.15 K, x1 = 0.0942): 1.334 ± 0.13 mPa·s
mass density (323.15 K, x1 = 0.1267): 968.24 ± 1.4 kg/m3
viscosity (323.15 K, x1 = 0.1267): 1.539 ± 0.14 mPa·s
mass density (323.15 K, x1 = 0.1763): 965.46 ± 1.5 kg/m3
viscosity (323.15 K, x1 = 0.1763): 1.761 ± 0.16 mPa·s
mass density (323.15 K, x1 = 0.2022): 962.36 ± 1.5 kg/m3
viscosity (323.15 K, x1 = 0.2022): 1.858 ± 0.17 mPa·s
mass density (323.15 K, x1 = 0.2538): 957.73 ± 1.6 kg/m3
viscosity (323.15 K, x1 = 0.2538): 2.023 ± 0.19 mPa·s
mass density (323.15 K, x1 = 0.2843): 954.64 ± 1.6 kg/m3
viscosity (323.15 K, x1 = 0.2843): 2.113 ± 0.19 mPa·s
mass density (323.15 K, x1 = 0.3275): 950.07 ± 1.7 kg/m3
viscosity (323.15 K, x1 = 0.3275): 2.183 ± 0.2 mPa·s
mass density (323.15 K, x1 = 0.3754): 944.75 ± 1.8 kg/m3
viscosity (323.15 K, x1 = 0.3754): 2.176 ± 0.2 mPa·s
mass density (323.15 K, x1 = 0.4033): 941.43 ± 1.9 kg/m3
viscosity (323.15 K, x1 = 0.4033): 2.143 ± 0.2 mPa·s
mass density (323.15 K, x1 = 0.4286): 938.65 ± 1.9 kg/m3
viscosity (323.15 K, x1 = 0.4286): 2.144 ± 0.2 mPa·s
mass density (323.15 K, x1 = 0.4689): 933.8 ± 2 kg/m3
viscosity (323.15 K, x1 = 0.4689): 2.073 ± 0.19 mPa·s
mass density (323.15 K, x1 = 0.4983): 930.71 ± 2.1 kg/m3
viscosity (323.15 K, x1 = 0.4983): 2.033 ± 0.19 mPa·s
mass density (323.15 K, x1 = 0.5433): 925.57 ± 2.2 kg/m3
viscosity (323.15 K, x1 = 0.5433): 1.948 ± 0.18 mPa·s
mass density (323.15 K, x1 = 0.5983): 919.96 ± 2.3 kg/m3
viscosity (323.15 K, x1 = 0.5983): 1.783 ± 0.17 mPa·s
mass density (323.15 K, x1 = 0.6438): 916.85 ± 2.3 kg/m3
viscosity (323.15 K, x1 = 0.6438): 1.677 ± 0.16 mPa·s
mass density (323.15 K, x1 = 0.6942): 913.49 ± 2.4 kg/m3
viscosity (323.15 K, x1 = 0.6942): 1.536 ± 0.14 mPa·s
mass density (323.15 K, x1 = 0.7587): 906.16 ± 2.6 kg/m3
viscosity (323.15 K, x1 = 0.7587): 1.362 ± 0.13 mPa·s
mass density (323.15 K, x1 = 0.8163): 902.37 ± 2.7 kg/m3
viscosity (323.15 K, x1 = 0.8163): 1.158 ± 0.11 mPa·s
mass density (323.15 K, x1 = 0.8869): 898.07 ± 2.8 kg/m3
viscosity (323.15 K, x1 = 0.8869): 0.954 ± 0.095 mPa·s
mass density (323.15 K, x1 = 0.9244): 896.15 ± 2.9 kg/m3
viscosity (323.15 K, x1 = 0.9244): 0.939 ± 0.094 mPa·s
mass density (323.15 K, x1 = 0.9812): 894.06 ± 2.9 kg/m3
viscosity (323.15 K, x1 = 0.9812): 0.841 ± 0.085 mPa·s
mass density (333.15 K, x1 = 0.0452): 968.24 ± 1.4 kg/m3
viscosity (333.15 K, x1 = 0.0452): 0.708 ± 0.074 mPa·s
mass density (333.15 K, x1 = 0.0942): 961.01 ± 1.5 kg/m3
viscosity (333.15 K, x1 = 0.0942): 0.998 ± 0.099 mPa·s
mass density (333.15 K, x1 = 0.1267): 955.3 ± 1.6 kg/m3
viscosity (333.15 K, x1 = 0.1267): 1.111 ± 0.11 mPa·s
mass density (333.15 K, x1 = 0.1763): 951.37 ± 1.6 kg/m3
viscosity (333.15 K, x1 = 0.1763): 1.251 ± 0.12 mPa·s
viscosity (333.15 K, x1 = 0.2022): 1.297 ± 0.12 mPa·s
mass density (333.15 K, x1 = 0.2538): 942.51 ± 1.8 kg/m3
viscosity (333.15 K, x1 = 0.2538): 1.396 ± 0.13 mPa·s
mass density (333.15 K, x1 = 0.2843): 939.75 ± 1.8 kg/m3
viscosity (333.15 K, x1 = 0.2843): 1.425 ± 0.14 mPa·s
mass density (333.15 K, x1 = 0.3275): 935.6 ± 1.9 kg/m3
viscosity (333.15 K, x1 = 0.3275): 1.477 ± 0.14 mPa·s
mass density (333.15 K, x1 = 0.3754): 930.7 ± 2 kg/m3
viscosity (333.15 K, x1 = 0.3754): 1.468 ± 0.14 mPa·s
mass density (333.15 K, x1 = 0.4033): 927.59 ± 2 kg/m3
viscosity (333.15 K, x1 = 0.4033): 1.434 ± 0.14 mPa·s
mass density (333.15 K, x1 = 0.4286): 925 ± 2.1 kg/m3
viscosity (333.15 K, x1 = 0.4286): 1.433 ± 0.14 mPa·s
mass density (333.15 K, x1 = 0.4689): 920.44 ± 2.2 kg/m3
viscosity (333.15 K, x1 = 0.4689): 1.361 ± 0.13 mPa·s
mass density (333.15 K, x1 = 0.4983): 917.56 ± 2.2 kg/m3
viscosity (333.15 K, x1 = 0.4983): 1.319 ± 0.13 mPa·s
mass density (333.15 K, x1 = 0.5433): 912.67 ± 2.3 kg/m3
viscosity (333.15 K, x1 = 0.5433): 1.232 ± 0.12 mPa·s
mass density (333.15 K, x1 = 0.5983): 907.35 ± 2.4 kg/m3
viscosity (333.15 K, x1 = 0.5983): 1.126 ± 0.11 mPa·s
mass density (333.15 K, x1 = 0.6438): 904.17 ± 2.5 kg/m3
viscosity (333.15 K, x1 = 0.6438): 1.033 ± 0.1 mPa·s
mass density (333.15 K, x1 = 0.6942): 900.9 ± 2.6 kg/m3
viscosity (333.15 K, x1 = 0.6942): 0.935 ± 0.093 mPa·s
mass density (333.15 K, x1 = 0.7587): 894.82 ± 2.7 kg/m3
viscosity (333.15 K, x1 = 0.7587): 0.837 ± 0.085 mPa·s
mass density (333.15 K, x1 = 0.8163): 891.64 ± 2.8 kg/m3
viscosity (333.15 K, x1 = 0.8163): 0.809 ± 0.083 mPa·s
mass density (333.15 K, x1 = 0.8869): 888.89 ± 2.9 kg/m3
viscosity (333.15 K, x1 = 0.8869): 0.719 ± 0.075 mPa·s
mass density (333.15 K, x1 = 0.9244): 886.87 ± 3 kg/m3
viscosity (333.15 K, x1 = 0.9244): 0.703 ± 0.073 mPa·s
mass density (333.15 K, x1 = 0.9812): 884.98 ± 3 kg/m3
viscosity (333.15 K, x1 = 0.9812): 0.709 ± 0.074 mPa·s
mass density (343.15 K, x1 = 0.0452): 962.12 ± 1.5 kg/m3
viscosity (343.15 K, x1 = 0.0452): 0.499 ± 0.056 mPa·s
mass density (343.15 K, x1 = 0.0942): 954.33 ± 1.6 kg/m3
viscosity (343.15 K, x1 = 0.0942): 0.564 ± 0.061 mPa·s
mass density (343.15 K, x1 = 0.1267): 948.38 ± 1.7 kg/m3
viscosity (343.15 K, x1 = 0.1267): 0.653 ± 0.069 mPa·s
mass density (343.15 K, x1 = 0.1763): 944.12 ± 1.7 kg/m3
viscosity (343.15 K, x1 = 0.1763): 0.691 ± 0.072 mPa·s
mass density (343.15 K, x1 = 0.2022): 939.98 ± 1.8 kg/m3
viscosity (343.15 K, x1 = 0.2022): 0.704 ± 0.073 mPa·s
mass density (343.15 K, x1 = 0.2538): 934.96 ± 1.9 kg/m3
viscosity (343.15 K, x1 = 0.2538): 0.729 ± 0.075 mPa·s
mass density (343.15 K, x1 = 0.2843): 932.11 ± 1.9 kg/m3
viscosity (343.15 K, x1 = 0.2843): 0.757 ± 0.078 mPa·s
mass density (343.15 K, x1 = 0.3275): 927.87 ± 2 kg/m3
viscosity (343.15 K, x1 = 0.3275): 0.771 ± 0.079 mPa·s
mass density (343.15 K, x1 = 0.3754): 922.89 ± 2.1 kg/m3
viscosity (343.15 K, x1 = 0.3754): 0.793 ± 0.081 mPa·s
mass density (343.15 K, x1 = 0.4033): 919.76 ± 2.1 kg/m3
viscosity (343.15 K, x1 = 0.4033): 0.757 ± 0.078 mPa·s
mass density (343.15 K, x1 = 0.4286): 917.15 ± 2.2 kg/m3
viscosity (343.15 K, x1 = 0.4286): 0.755 ± 0.078 mPa·s
mass density (343.15 K, x1 = 0.4689): 912.58 ± 2.3 kg/m3
viscosity (343.15 K, x1 = 0.4689): 0.773 ± 0.079 mPa·s
mass density (343.15 K, x1 = 0.4983): 909.69 ± 2.3 kg/m3
viscosity (343.15 K, x1 = 0.4983): 0.718 ± 0.075 mPa·s
mass density (343.15 K, x1 = 0.5433): 904.8 ± 2.4 kg/m3
viscosity (343.15 K, x1 = 0.5433): 0.701 ± 0.073 mPa·s
mass density (343.15 K, x1 = 0.5983): 899.49 ± 2.5 kg/m3
viscosity (343.15 K, x1 = 0.5983): 0.661 ± 0.07 mPa·s
mass density (343.15 K, x1 = 0.6438): 896.3 ± 2.6 kg/m3
viscosity (343.15 K, x1 = 0.6438): 0.629 ± 0.067 mPa·s
mass density (343.15 K, x1 = 0.6942): 893.02 ± 2.7 kg/m3
viscosity (343.15 K, x1 = 0.6942): 0.598 ± 0.064 mPa·s
mass density (343.15 K, x1 = 0.7587): 886.99 ± 2.8 kg/m3
viscosity (343.15 K, x1 = 0.7587): 0.569 ± 0.062 mPa·s
mass density (343.15 K, x1 = 0.8163): 883.81 ± 2.9 kg/m3
viscosity (343.15 K, x1 = 0.8163): 0.566 ± 0.062 mPa·s
mass density (343.15 K, x1 = 0.8869): 881.05 ± 3 kg/m3
viscosity (343.15 K, x1 = 0.8869): 0.556 ± 0.061 mPa·s
mass density (343.15 K, x1 = 0.9244): 879.04 ± 3 kg/m3
viscosity (343.15 K, x1 = 0.9244): 0.551 ± 0.06 mPa·s
mass density (343.15 K, x1 = 0.9812): 877.14 ± 3.1 kg/m3
viscosity (343.15 K, x1 = 0.9812): 0.535 ± 0.059 mPa·s

Source: the NIST ThermoML archive (doi:10.1021/je800197t)
